Reference: US12377166B2, “Iron oxide nanoparticle for targeted chemo-immunotherapy” (University of Washington, priority 2021, dated 2025)

How the values were obtained:
4T1 cells [1] = assay: Cell uptake assay by flow cytometry; assay type: cell-based, murine; conditions: 2 h
Description: Cell uptake assay by flow cytometry. 4T1 cells were incubated with different agents for 2 h (10 μg/mL DOX or DOX equivalent NPs) at either 37° C. or 4° C., followed by washing with cold PBS for 3 times. Cells were then trypsinized and resuspended in cold PBS and analyzed by flow cytometry (FACSCanto II, BD Biosciences). Each condition was triplicated.

4T1 cells [2] = assay: Alamar Blue cell viability assay; assay type: cell-based, murine; conditions: 72 h incubation
Description: Alamar Blue cell viability assay. Cells were seeded in a 96-well plate and incubated overnight. The following day, the medium was replaced with medium containing various agents. The cells were then incubated for 72 h. Cell viability was assessed using the Alamar Blue assay. Briefly, the medium was replaced with cell culture medium containing the reagent and allowed to incubate for 2 h. Following the incubation, a microplate reader (SpectraMax i3 multimode microplate reader, Molecular Devices) was used to determine the fluorescence intensity of the dye (550ex/590em). The fluorescence intensity from NP or free drug treated cells was compared to those from untreated control cells to determine percent viability. Each condition was triplicated.

[3] = tested on: bone marrow-derived dendritic cells (BMDCs); assay: Confocal imaging of cellular uptake into BMDCs; assay type: cell-based, BALB/c mice; conditions: 10 μg/mL Poly IC equivalent, 1 h, 37 °C
Description: BMDCs preparation. BMDC were generated from female BALB/c mice of 6-8 weeks old. The isolation of bone marrow cells was carried out following the method described in Madaan, A., et al., Journal of Biological Methods (2014) 1 (1). Cells were resuspended in RPMI-1640 supplemented with 10% FBS, 20 ng/mL recombinant murine GM-CSF (Shenandoah Biotechnology, Inc, Warwick, PA), and antibiotics (Pen Strep). Cells were allowed to differentiate for 7 d with one addition of fresh media at day 3. At day 7, cells were aspirated and counted for assays. Medium containing 10 ng/mL GM-CSF was used in assays.
Confocal microscopic imaging of cellular uptake. Cells were seeded onto a chamber slide (Nunc™ Lab-Tek™ II Chamber Slide™ System, Thermo Fisher Scientific Rockford, IL) with a density of 50,000 per well and incubated overnight. DOX, IONP-DOX-EBP-Cy5, or IONP-DOX-Poly IC-EBP-Cy5 was added into cells at a concentration of 10 μg/mL Poly IC-equivalency and incubated for 1 h. Cells were then washed and imaged with a Leica SP8X confocal laser scanning microscope.

IL-12 [4] = assay: Serum/plasma IL-12 after I.V. injection (ELISA); assay type: in vivo, mice; conditions: for change of plasma IL-12 level: I.V., DOX 5 mg/kg, Poly IC 18 mg/kg, or NP (DOX 10 mg/kg, Poly IC 18 mg/kg)
Description: Six-week-old mice were administered with IONP-DOX-Poly IC-EBP-Cy5 through I.V. injection (dosage: 10 mg/kg DOX or equivalent). At 1, 2, 4, 8, 24 and 72 h post-injection, blood (5-25 μL) was collected from tail vein. The total amount of blood withdrawn from each mouse never exceeded one percent of the total body weight of the animal during the experiment. Whole blood was diluted with PBS and spun using a benchtop centrifuge for 2 min at 5000 g to separate the plasma. The diluted plasma was added to a 96-well black plate. The plate was scanned on a SpectraMax i3 plate reader (fluorescence mode) to measure Cy5 (ex, 646 nm; em, 676 nm) and DOX (ex, 500 nm; em, 600 nm) fluorescence signals. Three mice were used for each group.
The same conditions in pharmacokinetics study were used here except that blood was collected before agent administration and 2, 6.5 and 24 h after administration. IL-12 in plasma was assessed using an ELISA kit following the manufacturer's instruction and quantified with a SpectraMax i3 plate reader.

[5] = tested on: 4T1-luc tumors and organs; assay: DOX uptake in organs and tumors by confocal imaging; assay type: in vivo, BALB/c mice; conditions: 10 mg/kg DOX, single I.V., 48 h post-injection
Description: (§1) One week after inoculated with 4T1-luc cells, mice were injected with various agents intravenously. Forty-eight hours later, mice were euthanized and organs (heart, kidney, liver, lung, and spleen) and tumors were harvested and pre-served in 10% formalin for 48 h. Formalin-fixed tissue samples were first transferred from PBS to 70% ethanol and maintained for 2 hours, and then were transferred into 95% ethanol/5% methanol and maintained for an additional 2 hours. The samples were transferred in absolute ethanol and maintained for 1 hour, and then transferred again into 3 consecutive absolute xylene solutions and maintained in each for 1 hour. The samples were dehydrated and then placed in 2 consecutive melted paraffin baths and maintained in each for 2 hours. The tissue samples were then embedded in paraffin blocks and sectioned at 10 um thickness and loaded onto microscope slides. The loaded slides were heated to remove excess paraffin and adhere the samples to the slides. The samples were then deparaffinized by a series of xylene, ethanol and PBS baths.
The deparaffinized tissue samples were stained with DAPI and WGA-AF647 and mounted with Prolong Gold mounting medium. Samples were imaged with a Leica SP8X confocal microscope.

[6] = H&E histopathology of organs; assay type: in vivo, BALB/c mice; conditions: 10 mg/kg DOX equivalent, single I.V., 48 h
Description: as §1
The deparaffinized samples were stained with haemotoxylin and eosin, and mounted with Prolong Gold mounting medium. Microscopic images of tissues were acquired using a Nikon ECLIPSE TE 2000-S microscope.

4T1-luc flank tumor = assay: Tumor growth inhibition in 4T1-luc flank tumor model; assay type: in vivo; conditions: for inhibition to tumor growth as compared to PBS-treated mice: three I.V. doses days 7, 10, 13, free DOX 5 mg/kg, NP DOX 10 mg/kg, Poly IC 18 mg/kg
Description: 6-Week-old female BALB/c mice were used. 4T1-luc cells were transfected to stably express luciferase so that bioluminescence imaging could be used to monitor tumor growth. 4T1-luc cells were trypsinized and suspended in PBS (10^7 cells/mL) and injected subcutaneously into the right flanks of mice (0.1 mL per mouse). Seven days after tumor inoculation, twenty-eight mice were randomly divided into 7 groups and each group was administered through intravenous injection with three doses of one of the following agents: PBS, IONPs, DOX, Poly IC, IONP-DOX-EBP, IONP-DOX-Poly IC, and IONP-DOX-Poly IC-EBP. […] For all NP agents, doses of DOX and Poly IC were 10 mg/kg and 18 mg/kg, respectively. Each mouse received an injection at day 7, 10 and 13 after tumor inoculation. The tumor size was measured by a caliper and the tumor volume was calculated by equation: V=width^2×length/2. The tumor size was measured every 3 days starting at day 4 after tumor cell inoculation. The body weight was also monitored after first agent administration.

4T1-luc orthotopic tumor = assay: Tumor growth, survival and metastasis in 4T1-luc primary (orthotopic) tumor model; assay type: in vivo, BALB/c mice
Description: 6-Week-old female BALB/c mice were used in this study. 4T1-luc cells were injected subcutaneously into the #9 mammary glands (10^6 cells in 0.05 mL PBS per mouse). Seven days after tumor inoculation, eighteen mice were randomly divided into 3 groups and each group was administered through intravenous injection with five doses of one of the following agents: PBS, DOX, and IONP-DOX-Poly IC-EBP. For free DOX, dose was 5 mg/kg per injection. For IONP-DOX-Poly IC-EBP, doses of DOX and Poly IC were 10 mg/kg and 18 mg/kg, respectively. Each mouse received an injection at day 7, 10, 13, 16 and 19 after tumor inoculation. The tumor size and body weight were monitored after first administration. Metastasis was monitored by IVIS imaging starting at day 22 after tumor inoculation. Mice were imaged at day 22, 25, 28, 31, 34, 37, 41, 45 and 50. Mice were euthanized following the approved animal protocol.

IL-12 [7] = assay: IL-12 production by BMDCs (ELISA); assay type: cell-based, BALB/c mice; conditions: 10 μg/mL Poly IC equivalent, 24 h
Description: IL-12 production by ELISA assay. All conditions used were same as those for viability assay. Twenty-four hours after addition of agents into cell medium, supernatants were collected and IL-12 levels in medium were assessed by an ELISA assay kit following the manufacturer's protocol. Each condition was triplicated.

[8] = tested on: T cells (CD8, CD25, CD69); assay: Antigen-specific T cell response by flow cytometry in 4T1 tumor-bearing mice; assay type: in vivo, BALB/c mice; conditions: three days after treatment
Description: Twelve 6-week-old female BALB/c mice were used. 4T1 cells (10^5 cells per mouse) were inoculated subcutaneously into #9 mammary glands. The tumors were allowed to grow into palpable masses. Ten days after tumor inoculation, the 12 mice were separated into 4 treatment groups. Four treatments, including IONP-DOX-EBP-Poly IC (10 mg/kg DOX and Poly IC), IONP-DOX-EBP (10 mg/kg DOX), free Poly IC (10 mg/kg Poly IC) and PBS, were administered intravenously into four groups of mice bearing tumors (200 μL per mouse), respectively. Three days after administration, mice were euthanized, and tumors and spleens were harvested.
Harvested tumors and spleens were then sectioned, squeezed through 70 μm cell strainers and washed with PBS w/1% v/v ratio of FBS to obtain single cell suspensions. Cells were spun down with a centrifuge at 1500 rpm for 4 min and resuspended in 750 μL PBS w/1% v/v FBS. Anti-CD8-PE, anti-CD25-APC, and anti-CD69-FITC (Biolegend Inc.) solutions (3 μL each) were then mixed with 241 μL of PBS w/1% v/v FBS (total antibody solution volume for each single cell suspension was 250 μL). The cell/antibody suspension was then incubated in dark at room temperature for 30 mins. After incubation, 11 mL of PBS w/1% v/v FBS was added to all cell/antibody suspensions followed by centrifuging at 1500 rpm for 4 mins. Finally, all cell pellets were resuspended in 500 μL PBS w/1% v/v FBS and analyzed by flow cytometry (FACSCanto II).

Compound	mean fluorescence intensity (MFI) of DOX, cellular uptake (4T1 cells [1]; 10 μg/mL DOX equivalent)	DOX taken up by cells at 4° C. (4T1 cells [1]; 4 °C vs 37 °C) [%]	IC50 (cell viability) (4T1 cells [2]; DOX concentration)	uptake and localisation of DOX in BMDCs [3]	change of plasma IL-12 level (IL-12 [4])	DOX signal in liver [5]	DOX signal in tumors [5]	heart damage (H&E) [6]	pathological changes in organs other than heart (H&E) [6]	time to mouse death from severe toxicity (4T1-luc flank tumor; free DOX 10 mg/kg I.V.)	inhibition to tumor growth as compared to PBS-treated mice (4T1-luc flank tumor)	median survival time (4T1-luc orthotopic tumor; five I.V. injections 3 days apart, free DOX 5 mg/kg, NP DOX 10 mg/kg, Poly IC 18 mg/kg) [days]	metastasis delayed to day after tumor inoculation (4T1-luc orthotopic tumor; five I.V. injections, IVIS bioluminescence) [days]	toxicity to cells (viability) (4T1 cells [2])	production of IL-12 in cellular supernatants (IL-12 [7])	time of peak IL-12 level post injection (IL-12 [4]; I.V. injection) [h]	CD8 cells in tumor [8] [%]	CD25 cells in tumor [8] [%]	CD69 cells in tumor [8] [%]
COc1cccc2c1C(=O)c1c(O)c3c(c(O)c1C2=O)C[C@@](O)(C(=O)CO)C[C@@H]3O[C@H]1C[C@H](N)[C@H](O)[C@H](C)O1 [DOX, doxorubicin]	451	10	about 0.36 μg/mL	can enter BMDCs	did not increase the IL-12 level	strong and evenly distributed fluorescence signal	No observable DOX signal	severe heart damage	No pathological changes	less than 2 weeks	small	32.5	31	–	–	–	–	–	–
polyinosinic:polycytidylic acid [Poly IC]	–	–	–	–	rapid elevation of the IL-12 level	–	–	–	–	–	small	–	–	non-toxic to cells	equivalent production of IL 12	1.5	8.63	7.91	3.57
